Measurements from patent US10975033B2, “Methods for treating inflammation and hypertension with γ-ketoaldehyde skavengers” (Vanderbilt University, priority 2011, dated 2021).

Assays:
[1] = tested on: carrageenin-induced paw edema; assay: Carrageenin-induced paw edema rat model; type: in vivo; conditions: for mean reduction in edema: 3 hrs after injection of carrageenin, FIG. 7
Excerpt: As indicated above, one embodiment of the present invention is the use of salicylamine to treat inflammation. […] The carrageenin-induced paw edema rat model has been probably the most utilized animal model to screen for potency of NSAIDs and other antiinflammatory compounds to inhibit inflammation for decades. For example, see Proc Soc Exp Biol Med 111:544 in 1962 by Winter C A et. al., entitled: “Carrageenin-induced edema of the hind paw of the rat as an assay for antiinflammatory drugs”. Importantly, it has been shown that this model is one of the most robust predictors of clinical potency of NSAIDs^54.
Our initial experiments tested the ability of a single dose of salicylamine (200 mg/kg), administered intraperitoneally, to reduce paw edema at various time points. Carrageenan (100 μl of a 1% solution in saline) was injected into the hind right footpad. Footpad volume was measured in a water displacement plethysmometer before injection of carrageenin and at 2 hr, 3 hr, and 4 hr post-carrageenin. Edema was calculated as footpad volume change (ml) as a percentage of original paw volume for each individual animal.
The efficacy an analog of salicylamine, 5-methyl-salicylamine, to inhibit carrageenin-induced paw edema was accessed at 3 hrs after injection of carrageenin at two doses, 200 and 100 mg/kg ip (FIG. 7).

[2] = tested on: cells exposed to a lethal concentration of the oxidant t-butylhydroperoxide; assay: Protection of cells against a lethal concentration of t-butylhydroperoxide (FIG. 5); type: cell-based
Excerpt: One example is shown in FIG. 5, where cells are exposed to a lethal concentration of the oxidant t-butylhydroperoxide. […] Accordingly, we suspected that the γ-KAs generated by the COX pathways would likely be very pro-inflammatory, which might explain the underlying mechanism by which NSAID's exert some their anti-inflammatory effects.

[3] = Pharmacokinetics of salicylamine; type: in vivo
COX enzymes = conditions: cited from earlier work
NF-κB = assay: LPS-induced NF-κB expression in NF-κB reporter macrophages (luciferase reporter assay); type: cell-based; conditions: varying concentrations, FIG. 9
Excerpt: The effect of γ-KAs and salicylamine on induction of NF-κB was explored using a novel luciferase reporter assay to quantitatively monitor the induction of expression of NF-κB both in vitro in cells and in vivo^55; 56. NF-κB is required for maximal induction of many cytokines which are thought to be important in the generation of the acute inflammatory responses^57. Accordingly, the downstream effects of an agent that suppresses the induction of NF-κB would be a reduction in the level of inflammation. The first question we asked was does exposure of cells to γ-KAs induce the expression of NF-κB using the luciferase reporter assay mentioned above. […] The abbreviation RLU in this figure stands for Relative Light Units that were measured by luciferase assay.
Another embodiment of the present invention is treatment with varying concentrations of salicylamine (SA) would suppress lipopolysaccharide (LPS) induced expression of NF-κB in NF-κB reporter macrophages.

[4] = Reactivity of scavenger with γ-KAs relative to lysine; conditions: more reactive than lysine
Excerpt: Other embodiments of the present invention include the use of analogs of pyridoxamine that are less polar but retain the critical molecular structure of this molecule responsible for intercepting γ-KAs^49. One example is 2-hydroxy-benzylamine (salicylamine, SA) which is 980 times more reactive than lysine with γ-KAs.
It is important to emphasize that the use of salicylamine is one example of the present invention. Other embodiments include compounds that intercept γ-KA scavengers on various biological processes, their analogs and salt forms thereof. Different non-limiting examples of compounds of the present invention are listed below, which intercept γ-KAs with varying degrees of hydrophilicity. Additionally, to solubilize the more hydrophobic compounds, they have been converted them to an acetate salt. These react with γ-KAs in vitro at a rate more than 2 orders of magnitude greater than the potency of the reaction of γ-KAs with the ε-amine of lysine^49. […] Included are analogs, salts, and pharmaceutical compositions comprising compounds that intercept γ-KA scavengers on various biological processes.

hAPO4 mice = assay: Cognitive deficits in hAPO4 mouse model of human Alzheimer's disease; type: in vivo
Excerpt: The present inventors have shown that levels of γ-KA adducts are increased in disease affected areas of whole brain tissue from patients with Alzheimer's disease. […] The present inventors accessed the ability of the γ-KA scavenger salicylamine to prevent the development of cognitive abnormalities in an animal model of human Alzheimer's disease, hAPO4 mice.

[5] = tested on: neutrophil cell counts in lung bronchoalveolar lavage fluid; assay: Neutrophil cell counts in lung bronchoalveolar lavage fluid of LPS-injected mice; type: in vivo; conditions: ip at 1 hr, 3 hrs, 5 hrs after LPS; determined 8 hrs after LPS; FIG. 11
Procedure: An in vivo experiment was performed to explore whether treatment with salicylamine would down regulate the activity of NF-kB in animals injected with LPS. The animals we used were mice with a luciferase NF-kB reporter gene developed by Dr. Timothy Blackwell mentioned previously. LPS was injected into mice and salicylamine was injected intraperitoneally at 1 hr, 3 hrs, and 5 hrs after the LPS injection. Lung NF-kB luciferase assay and neutrophil cell counts in lung bronchoalveolar lavage fluid (BAL) were then determined 8 hrs after the LPS injection. There was a reduction in both (a) activity of NF-kB (FIG. 10) (b) and neutrophil cell counts (FIG. 11), both of which are indicative of a pronounced anti-inflammatory effect of salicylamine treatment in these animals.

SMILES: Cc1ccc(O)c(CN)c1 [5-methyl-salicylamine]
- mean reduction in edema ([1]; 100 mg/kg ip): 29%
- mean reduction in edema ([1]; 200 mg/kg ip): 60%

SMILES: NCc1ccccc1O [salicylamine, 2-hydroxy-benzylamine]
- protection against cell death [2]: almost completely protected against cell death
- plasma concentrations compared with tissue concentrations ([3]; in vivo): lower than tissue concentrations
- half-life ([3]; plasma, read-out: half life (t1/2) in plasma): ~1 h
- inhibition of carrageenin-induced paw edema ([1]; single dose 200 mg/kg intraperitoneally, 2 hr, 3 hr, 4 hr post-carrageenin, FIG. 6): marked inhibition
- persistence of decrease in paw edema after injection of carrageenin ([1]; single intraperitoneal injection, 200 mg/kg): at least 4 hrs
- inhibition of COX (cyclooxygenase) enzymes (COX enzymes): None of the compound listed below, including salicylamine, inhibit cyclooxygenase enzymes
- LPS induced expression of NF-κB (NF-κB): concentration dependent stepwise reduction
- reactivity with γ-KAs relative to lysine [4]: 980 times
- prevention of development of cognitive deficits (hAPO4 mice): almost completely prevented
- neutrophil cell counts in BAL [5]: reduction
